Measured values from article PMC10412597, “Small molecule branched-chain ketoacid dehydrogenase kinase (BDK) inhibitors with opposing effects on BDK protein levels” (Nature Communications, 2023).

Tests used:
Choline Transporter = molecular target: T1, Choline Transporter (Homo sapiens, UniProt Q9GZV3); set-up: Cerep Bioprint off-target panel, ligand binding inhibition; conditions: binder
T1 construct: gene SLC5A7
Protocol: To discover a potent and selective BDK inhibitor, a subset of the Pfizer compound collection was screened. […] Off target activity was assessed in both CEREP and kinase panels (Supplementary Tables 2, 3).

Histamine H2 = molecular target: T2, Histamine H2 (Homo sapiens, UniProt P25021); set-up: Cerep Bioprint off-target panel, functional receptor agonism or antagonism; conditions: agonist
T2 construct: gene HRH2
T2 sequence (P25021 whole entry): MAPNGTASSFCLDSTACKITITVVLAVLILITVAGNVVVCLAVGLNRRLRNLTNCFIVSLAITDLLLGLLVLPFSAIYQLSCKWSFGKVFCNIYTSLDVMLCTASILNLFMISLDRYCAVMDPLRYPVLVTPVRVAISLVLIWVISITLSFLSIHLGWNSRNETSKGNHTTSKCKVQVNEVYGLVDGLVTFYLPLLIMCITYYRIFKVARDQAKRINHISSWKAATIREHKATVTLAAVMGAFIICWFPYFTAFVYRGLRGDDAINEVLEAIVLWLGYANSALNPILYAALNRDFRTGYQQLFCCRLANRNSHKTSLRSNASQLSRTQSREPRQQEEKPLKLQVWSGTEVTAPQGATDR
Procedure, shortened: (§1)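 Off-target profiling of BDK inhibitor candidates: the receptor targets were run in a CEREP panel and ABL1 in a kinase panel.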

Muscarinic 1 = molecular target: T3, Muscarinic 1 (Homo sapiens, UniProt P11229); set-up: Cerep Bioprint off-target panel, functional receptor agonism or antagonism
T3 construct: gene CHRM1
T3 sequence (P11229 1-460): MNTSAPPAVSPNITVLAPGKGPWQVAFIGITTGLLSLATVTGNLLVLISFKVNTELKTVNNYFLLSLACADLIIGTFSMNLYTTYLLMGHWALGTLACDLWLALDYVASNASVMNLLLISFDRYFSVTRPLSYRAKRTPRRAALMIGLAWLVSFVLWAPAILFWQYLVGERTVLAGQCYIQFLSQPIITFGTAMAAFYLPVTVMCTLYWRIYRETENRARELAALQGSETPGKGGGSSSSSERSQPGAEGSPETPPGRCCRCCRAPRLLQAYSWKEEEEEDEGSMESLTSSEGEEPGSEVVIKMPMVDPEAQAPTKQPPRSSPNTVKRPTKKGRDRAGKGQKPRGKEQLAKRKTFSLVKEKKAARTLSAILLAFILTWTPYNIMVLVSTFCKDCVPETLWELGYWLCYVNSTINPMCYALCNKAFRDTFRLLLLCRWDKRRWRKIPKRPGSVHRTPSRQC
Procedure, shortened: as §1

Vasopressin 1a = molecular target: T4, Vasopressin 1a (Homo sapiens, UniProt P37288); set-up: Cerep Bioprint off-target panel, functional receptor agonism or antagonism; conditions: agonist
T4 construct: gene AVPR1A
T4 sequence (P37288 whole entry): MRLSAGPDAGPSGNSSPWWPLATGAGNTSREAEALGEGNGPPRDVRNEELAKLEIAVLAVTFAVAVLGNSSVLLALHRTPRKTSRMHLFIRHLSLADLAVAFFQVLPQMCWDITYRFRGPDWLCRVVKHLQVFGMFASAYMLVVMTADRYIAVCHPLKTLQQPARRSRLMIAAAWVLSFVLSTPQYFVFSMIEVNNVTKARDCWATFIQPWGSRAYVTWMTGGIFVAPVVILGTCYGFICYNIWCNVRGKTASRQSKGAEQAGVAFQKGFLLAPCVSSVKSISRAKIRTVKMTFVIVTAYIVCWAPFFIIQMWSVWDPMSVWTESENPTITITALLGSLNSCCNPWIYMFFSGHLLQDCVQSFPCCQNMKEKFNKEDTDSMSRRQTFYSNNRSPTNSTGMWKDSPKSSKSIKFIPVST
Procedure, shortened: as §1

Serotonin 5-HT2b = molecular target: T5, Serotonin 5-HT2b (Homo sapiens, UniProt P41595); set-up: Cerep Bioprint off-target panel, functional receptor agonism or antagonism; conditions: agonist
T5 construct: gene HTR2B
T5 sequence (P41595 whole entry): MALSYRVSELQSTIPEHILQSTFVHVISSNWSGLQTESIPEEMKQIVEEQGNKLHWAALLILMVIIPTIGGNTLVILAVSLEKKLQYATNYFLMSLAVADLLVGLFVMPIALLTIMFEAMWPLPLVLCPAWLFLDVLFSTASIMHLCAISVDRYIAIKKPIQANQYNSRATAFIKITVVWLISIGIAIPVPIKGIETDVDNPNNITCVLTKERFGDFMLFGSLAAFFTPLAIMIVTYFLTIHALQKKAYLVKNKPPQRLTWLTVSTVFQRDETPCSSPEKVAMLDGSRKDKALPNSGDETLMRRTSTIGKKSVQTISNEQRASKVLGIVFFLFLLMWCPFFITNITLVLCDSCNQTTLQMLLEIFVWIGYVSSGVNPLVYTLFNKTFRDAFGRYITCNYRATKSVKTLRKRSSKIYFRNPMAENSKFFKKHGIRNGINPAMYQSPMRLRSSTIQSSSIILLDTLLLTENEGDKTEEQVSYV
Procedure, shortened: as §1

Dopamine D1 = molecular target: T6, Dopamine D1 (Homo sapiens, UniProt P21728); set-up: Cerep Bioprint off-target panel, functional receptor agonism or antagonism
T6 construct: gene DRD1
T6 sequence (P21728 whole entry): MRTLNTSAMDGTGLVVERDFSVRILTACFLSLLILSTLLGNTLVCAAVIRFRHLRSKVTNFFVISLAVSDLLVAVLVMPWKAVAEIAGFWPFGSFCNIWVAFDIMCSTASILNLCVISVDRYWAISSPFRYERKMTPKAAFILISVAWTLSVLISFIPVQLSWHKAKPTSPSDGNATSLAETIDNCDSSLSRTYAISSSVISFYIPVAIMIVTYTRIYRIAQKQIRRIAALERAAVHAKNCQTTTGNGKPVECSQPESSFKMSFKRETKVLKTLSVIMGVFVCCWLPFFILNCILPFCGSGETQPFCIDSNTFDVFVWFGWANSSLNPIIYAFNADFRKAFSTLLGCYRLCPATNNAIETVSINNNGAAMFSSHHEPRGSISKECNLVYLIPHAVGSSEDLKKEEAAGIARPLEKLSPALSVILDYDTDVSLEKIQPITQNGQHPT
Procedure, shortened: as §1

Mu Opiod = molecular target: T7, Mu Opiod (Homo sapiens, UniProt P35372); set-up: Cerep Bioprint off-target panel, functional receptor agonism or antagonism; conditions: antagonist
T7 construct: gene OPRM1
T7 sequence (P35372 whole entry): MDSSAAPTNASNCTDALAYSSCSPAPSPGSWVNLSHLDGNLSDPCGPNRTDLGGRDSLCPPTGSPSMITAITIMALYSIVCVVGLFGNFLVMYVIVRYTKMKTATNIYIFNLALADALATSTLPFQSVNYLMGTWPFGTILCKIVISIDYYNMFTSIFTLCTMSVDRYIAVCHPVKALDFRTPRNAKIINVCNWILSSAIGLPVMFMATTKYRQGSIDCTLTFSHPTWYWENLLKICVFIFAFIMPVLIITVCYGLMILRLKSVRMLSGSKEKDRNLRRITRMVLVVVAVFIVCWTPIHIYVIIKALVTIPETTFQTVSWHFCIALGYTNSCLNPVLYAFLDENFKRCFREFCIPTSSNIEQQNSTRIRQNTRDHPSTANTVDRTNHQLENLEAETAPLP
Procedure, shortened: as §1

Cholecystokinin 2 = molecular target: T8, Cholecystokinin 2 (Homo sapiens, UniProt P32239); set-up: Cerep Bioprint off-target panel, functional receptor agonism or antagonism; conditions: agonist
T8 construct: gene CCKBR
T8 sequence (P32239 whole entry): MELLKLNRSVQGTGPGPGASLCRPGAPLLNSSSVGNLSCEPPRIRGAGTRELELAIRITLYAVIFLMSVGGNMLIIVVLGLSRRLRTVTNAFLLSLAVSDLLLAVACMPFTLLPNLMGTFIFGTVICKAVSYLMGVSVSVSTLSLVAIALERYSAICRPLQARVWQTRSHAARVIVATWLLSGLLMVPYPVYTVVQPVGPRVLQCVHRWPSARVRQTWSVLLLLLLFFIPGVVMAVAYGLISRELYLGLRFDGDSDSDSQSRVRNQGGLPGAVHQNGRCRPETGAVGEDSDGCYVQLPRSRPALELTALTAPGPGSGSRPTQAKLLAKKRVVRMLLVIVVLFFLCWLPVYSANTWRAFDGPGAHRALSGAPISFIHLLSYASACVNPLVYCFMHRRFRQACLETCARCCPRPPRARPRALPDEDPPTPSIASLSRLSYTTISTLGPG
Procedure, shortened: as §1

[1] = molecular target: T9, Adrenergic Alpha 2a receptor (Homo sapiens, UniProt P08913); set-up: Cerep Bioprint off-target panel, functional receptor agonism or antagonism; conditions: agonist
T9 construct: gene ADRA2A
T9 sequence (P08913 whole entry): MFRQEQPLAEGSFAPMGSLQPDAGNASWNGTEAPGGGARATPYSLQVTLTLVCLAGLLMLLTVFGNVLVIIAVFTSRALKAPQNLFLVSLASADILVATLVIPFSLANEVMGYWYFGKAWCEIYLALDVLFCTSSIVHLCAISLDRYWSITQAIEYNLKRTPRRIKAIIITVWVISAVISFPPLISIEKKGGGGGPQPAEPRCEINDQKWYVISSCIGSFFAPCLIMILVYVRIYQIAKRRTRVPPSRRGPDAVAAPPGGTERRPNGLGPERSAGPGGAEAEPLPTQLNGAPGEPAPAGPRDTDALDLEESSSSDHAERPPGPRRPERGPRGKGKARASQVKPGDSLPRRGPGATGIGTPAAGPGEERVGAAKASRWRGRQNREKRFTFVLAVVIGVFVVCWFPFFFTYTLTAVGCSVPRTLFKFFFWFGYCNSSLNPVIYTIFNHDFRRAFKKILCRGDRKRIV
Procedure, shortened: as §1

Muscarinic 3 = molecular target: T10, Muscarinic 3 (Homo sapiens, UniProt P20309); set-up: Cerep Bioprint off-target panel, functional receptor agonism or antagonism
T10 construct: gene CHRM3
T10 sequence (P20309 whole entry): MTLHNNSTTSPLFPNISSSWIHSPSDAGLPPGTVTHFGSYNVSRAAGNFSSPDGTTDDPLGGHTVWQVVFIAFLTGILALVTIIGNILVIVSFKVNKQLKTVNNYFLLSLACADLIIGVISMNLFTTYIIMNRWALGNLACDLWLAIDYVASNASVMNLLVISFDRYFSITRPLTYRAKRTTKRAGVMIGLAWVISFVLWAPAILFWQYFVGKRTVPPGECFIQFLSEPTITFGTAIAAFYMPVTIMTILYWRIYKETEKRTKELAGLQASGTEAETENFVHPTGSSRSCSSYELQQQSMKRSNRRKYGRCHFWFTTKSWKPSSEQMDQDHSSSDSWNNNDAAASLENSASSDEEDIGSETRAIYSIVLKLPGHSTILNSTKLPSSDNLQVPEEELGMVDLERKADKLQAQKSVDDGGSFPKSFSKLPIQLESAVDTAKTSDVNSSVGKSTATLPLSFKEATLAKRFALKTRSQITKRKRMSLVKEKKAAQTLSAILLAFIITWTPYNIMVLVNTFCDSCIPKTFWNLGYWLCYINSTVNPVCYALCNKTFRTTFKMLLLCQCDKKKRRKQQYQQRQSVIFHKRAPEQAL
Procedure, shortened: as §1

[2] = molecular target: T11, Adrenergic Alpha 1a Adrenoceptor (Homo sapiens, UniProt P35348); set-up: Cerep Bioprint off-target panel, functional receptor agonism or antagonism
T11 construct: gene ADRA1A
T11 sequence (P35348 1-466): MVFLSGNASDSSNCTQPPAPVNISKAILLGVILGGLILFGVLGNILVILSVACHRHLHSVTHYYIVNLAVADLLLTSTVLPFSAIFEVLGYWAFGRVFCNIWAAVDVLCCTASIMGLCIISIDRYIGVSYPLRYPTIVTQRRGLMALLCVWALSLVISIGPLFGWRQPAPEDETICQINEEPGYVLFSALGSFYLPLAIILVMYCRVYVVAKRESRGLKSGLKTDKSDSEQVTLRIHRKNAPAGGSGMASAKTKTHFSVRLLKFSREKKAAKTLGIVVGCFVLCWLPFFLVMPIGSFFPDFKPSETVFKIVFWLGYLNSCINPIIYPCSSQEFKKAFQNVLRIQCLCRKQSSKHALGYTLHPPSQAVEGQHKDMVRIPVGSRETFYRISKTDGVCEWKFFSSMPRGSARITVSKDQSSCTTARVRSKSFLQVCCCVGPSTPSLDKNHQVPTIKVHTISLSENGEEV
Procedure, shortened: as §1

Neurokinin Nk1 = molecular target: T12, Neurokinin Nk1 (Homo sapiens, UniProt P25103); set-up: Cerep Bioprint off-target panel, functional receptor agonism or antagonism; conditions: agonist
T12 construct: gene TACR1
Procedure, shortened: as §1

Dopamine 2S = molecular target: T13, Dopamine 2S (Homo sapiens, UniProt P14416); set-up: Cerep Bioprint off-target panel, functional receptor agonism or antagonism
T13 construct: gene DRD2; short isoform (2S)
T13 sequence (P14416 whole entry, canonical isoform): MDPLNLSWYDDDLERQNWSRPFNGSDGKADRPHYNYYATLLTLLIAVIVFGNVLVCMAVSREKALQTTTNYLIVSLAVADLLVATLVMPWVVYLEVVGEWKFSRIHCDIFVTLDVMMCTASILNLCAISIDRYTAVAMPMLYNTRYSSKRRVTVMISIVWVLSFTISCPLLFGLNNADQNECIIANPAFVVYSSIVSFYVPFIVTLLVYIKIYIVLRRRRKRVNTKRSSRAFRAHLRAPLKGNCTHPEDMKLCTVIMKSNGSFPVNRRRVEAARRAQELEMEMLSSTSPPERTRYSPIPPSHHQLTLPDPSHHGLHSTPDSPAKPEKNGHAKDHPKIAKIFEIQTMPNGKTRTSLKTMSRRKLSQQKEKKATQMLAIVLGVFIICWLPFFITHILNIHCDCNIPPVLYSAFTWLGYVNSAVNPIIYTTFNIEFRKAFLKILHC
Procedure, shortened: as §1

Angiotensin 1 = molecular target: T14, Angiotensin 1 (Homo sapiens, UniProt P30556); set-up: Cerep Bioprint off-target panel, functional receptor agonism or antagonism
T14 construct: gene AGTR1
T14 sequence (P30556 1-359): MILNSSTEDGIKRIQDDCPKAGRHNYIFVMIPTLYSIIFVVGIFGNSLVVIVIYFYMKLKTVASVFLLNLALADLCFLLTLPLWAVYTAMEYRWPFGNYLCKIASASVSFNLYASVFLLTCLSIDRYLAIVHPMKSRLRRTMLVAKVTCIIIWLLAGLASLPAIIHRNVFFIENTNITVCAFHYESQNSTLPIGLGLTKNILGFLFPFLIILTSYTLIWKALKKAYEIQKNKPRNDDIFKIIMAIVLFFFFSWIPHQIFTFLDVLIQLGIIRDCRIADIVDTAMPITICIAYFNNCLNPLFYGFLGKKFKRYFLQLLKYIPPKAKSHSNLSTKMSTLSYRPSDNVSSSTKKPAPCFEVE
Procedure, shortened: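 Values come from off-target panels: the CEREP panel covers the receptor entries and a kinase panel covers ABL1.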

T1 sequence (Q9GZV3 whole entry): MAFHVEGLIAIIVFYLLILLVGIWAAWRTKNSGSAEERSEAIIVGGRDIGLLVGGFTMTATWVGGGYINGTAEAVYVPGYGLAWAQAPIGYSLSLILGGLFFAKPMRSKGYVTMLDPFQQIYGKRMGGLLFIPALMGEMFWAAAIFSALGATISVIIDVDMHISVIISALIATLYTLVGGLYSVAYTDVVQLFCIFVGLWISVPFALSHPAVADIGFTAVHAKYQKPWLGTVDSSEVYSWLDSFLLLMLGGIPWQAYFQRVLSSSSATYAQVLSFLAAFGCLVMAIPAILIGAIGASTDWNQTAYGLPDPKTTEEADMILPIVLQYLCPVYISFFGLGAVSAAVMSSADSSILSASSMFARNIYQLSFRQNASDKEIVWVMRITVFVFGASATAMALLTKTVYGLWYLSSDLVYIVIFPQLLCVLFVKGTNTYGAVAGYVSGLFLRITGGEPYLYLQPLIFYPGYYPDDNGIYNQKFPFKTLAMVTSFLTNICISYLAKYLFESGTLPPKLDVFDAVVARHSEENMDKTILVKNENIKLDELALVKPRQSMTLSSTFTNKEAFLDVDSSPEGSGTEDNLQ

CCC1(COc2ccc(-c3csc(-c4ccccc4C(=O)O)n3)cn2)CC1 [PF-07247685, 2-(4-{6-[(1-ethylcyclopropyl)methoxy]pyridin-3-yl}-1,3-thiazol-2-yl)benzoic acid]
% Inhibition (binding) PF-07247685 (Choline Transporter; 10 µM): -12%
% (agonism) PF-07247685 (Histamine H2; 10 µM): 1%
% (agonism) PF-07247685 (Muscarinic 1; 10 µM, agonist): 1%
% Inhibition (antagonism) PF-07247685 (Muscarinic 1; 10 µM, antagonist): 9%
% (agonism) PF-07247685 (Vasopressin 1a; 10 µM): -1%
% (agonism) PF-07247685 (Serotonin 5-HT2b; 10 µM): -5%
% (agonism) PF-07247685 (Dopamine D1; 10 µM, agonist): 4%
% Inhibition (antagonism) PF-07247685 (Dopamine D1; 10 µM, antagonist): 5%
% Inhibition (antagonism) PF-07247685 (Mu Opiod; 10 µM): -3%
% (agonism) PF-07247685 (Cholecystokinin 2; 10 µM): -8%
% (agonism) PF-07247685 ([1]; 10 µM): 0%
% (agonism) PF-07247685 (Muscarinic 3; 10 µM, agonist): -1%
% Inhibition (antagonism) PF-07247685 (Muscarinic 3; 10 µM, antagonist): 3%
% (agonism) PF-07247685 ([2]; 10 µM, agonist): 1%
% Inhibition (antagonism) PF-07247685 ([2]; 10 µM, antagonist): 14%
% (agonism) PF-07247685 (Neurokinin Nk1; 10 µM): -4%
% (agonism) PF-07247685 (Dopamine 2S; 10 µM, agonist): -17%
% Inhibition (antagonism) PF-07247685 (Dopamine 2S; 10 µM, antagonist): -7%
% (agonism) PF-07247685 (Angiotensin 1; 10 µM, agonist): -8%
% Inhibition (antagonism) PF-07247685 (Angiotensin 1; 10 µM, antagonist): 5%

O=C(O)c1sc2cc(F)sc2c1Cl [PF-07208254, 3-chloro-5-fluorothieno[3,2-b]thiophene-2-carboxylic acid]
% Inhibition (binding) PF-07208254 (Choline Transporter; 100 µM): -15%
% (agonism) PF-07208254 (Histamine H2; 100 µM): 0%
% (agonism) PF-07208254 (Muscarinic 1; 100 µM, agonist): -1%
% Inhibition (antagonism) PF-07208254 (Muscarinic 1; 100 µM, antagonist): 0%
% (agonism) PF-07208254 (Vasopressin 1a; 100 µM): 16%
% (agonism) PF-07208254 (Serotonin 5-HT2b; 100 µM): -5%
% (agonism) PF-07208254 (Dopamine D1; 100 µM, agonist): -4%
% Inhibition (antagonism) PF-07208254 (Dopamine D1; 100 µM, antagonist): -5%
% Inhibition (antagonism) PF-07208254 (Mu Opiod; 100 µM): 2%
% (agonism) PF-07208254 (Cholecystokinin 2; 100 µM): 0%
% (agonism) PF-07208254 ([1]; 100 µM): -1%
% (agonism) PF-07208254 (Muscarinic 3; 100 µM, agonist): 0%
% Inhibition (antagonism) PF-07208254 (Muscarinic 3; 100 µM, antagonist): 18%
% (agonism) PF-07208254 ([2]; 100 µM, agonist): 8%
% Inhibition (antagonism) PF-07208254 ([2]; 100 µM, antagonist): 21%
% (agonism) PF-07208254 (Neurokinin Nk1; 100 µM): -3%
% (agonism) PF-07208254 (Dopamine 2S; 100 µM, agonist): -29%
% Inhibition (antagonism) PF-07208254 (Dopamine 2S; 100 µM, antagonist): -7%
% (agonism) PF-07208254 (Angiotensin 1; 100 µM, agonist): 3%
% Inhibition (antagonism) PF-07208254 (Angiotensin 1; 100 µM, antagonist): 18%
